Experimental data as given in PMC11311998, “AR71, Histamine H3 Receptor Ligand—In Vitro and In Vivo Evaluation (Anti-Inflammatory Activity, Metabolic Stability, Toxicity, and Analgesic Action)” (International Journal of Molecular Sciences, 2024).
“And” between values parts separate entries of the source, which are not always exact repeats. Equal values may be shown once.

How the values were obtained:
[1] = metabolic stability in human liver microsomes; assay type: in vitro ADME
Procedure: The metabolic stability of AR71 was assessed in vitro using human liver microsomes (HLMs). […] After 120 min of incubation with HLMs, 85% of AR71 remained unchanged. However, during this time, six metabolites were formed (Figure S4a–d, Supplementary Materials). The metabolite M1 was formed in the highest amount (5.5%). The others were formed in amounts of 0.6% to 1.2%. Based on an analysis of their molar masses, and with the help of MetaSite 6.0.1, a type of metabolic transformation was proposed. The identified in vitro AR71 metabolic pathways and the most probable site of metabolism predicted by MetaSite 6.0.1 are shown in Table 1.
Metabolic stability was assessed in human liver microsomes (HLMs, Sigma-Aldrich, St. Louis, MO, USA), as previously described. After 120 min of incubation with HLMs, liquid chromatography–mass spectrometry (Waters ACQUITY TQD system with the TQ Detector, Waters, Milford, MA, USA) was used to identify the formed metabolites. MetaSite 6.0.1 software (Molecular Discovery Ltd., Hertfordshire, U.K.) was used to predict the most probable sites of metabolism in silico.

SH-SY5Y cells = assay type: cell-based, human; details: without rotenone
Procedure: To test neuroprotective activity, SH-SY5Y cells were pre-treated for 1 h with various concentrations of AR71, after which rotenone (6.25 μM) was added and the cells were cultured for another 24 h. […] Co-treatment with AR71 protected cells from the toxic effect of rotenone, resulting in LDH leakage ranging from 10 to 22% only.
The protective effect of AR71 against rotenone-induced toxicity in SH-SY5Y cells was assessed by measuring LDH release. SH-SY5Y cells (6 × 10^3 cells/100 μL/well) were seeded in black 96-well plates Nunclon^TM Delta Surface no. 137101 (ThermoFischer Scientific, Waltham, MA, USA) and cultured overnight. The next day, the medium was removed and replaced with a fresh one with an increasing concentration of AR71 (0.0975–50 μM). After 1 h of compound pre-treatment, the neurotoxin rotenone (6.25 μM) was added, and the cells were cultured for another 24 h. For the negative and positive controls, cells were treated with 0.1% DMSO and 6.25 μM of rotenone alone, respectively. The cells treated with the compound alone were used to compare the effect with those co-treated with rotenone. After 24 h, the level of LDH leakage was measured by the CytoTox-ONE™ Homogeneous Membrane Integrity Assay (Promega, Madison, WI, USA) following the manufacturer’s protocol. Briefly, 100 μL of CytoTox-ONE™ reagent (Promega, Madison, WI, USA) was added to each well, and the cells were incubated for 10 min at room temperature protected from light. The fluorescence was measured using the multimode plate reader Tecan Spark (Tecan, Männedorf, Switzerland) with an excitation wavelength of 560 nm and an emission wavelength of 590 nm.

hH1R = biological target: hH1R; set-up: method as in PMID 36370200; details: cited from earlier work
human astrocytes = test: viability of human astrocytes (MTT assay); assay type: cell-based; details: for IC50: Homo sapiens, Astrocyte
Procedure: We investigated the effect of AR71 in a wide range of concentrations (0.78–100 μM) on the viability of human astrocyte cell lines after 2, 24, 48, and 72 h of incubation (Figure 6). Prolonged incubation of human astrocytes with AR71 caused a dose-dependent decrease in cell viability.
The astrocyte cell line from the human cerebral cortex was purchased from ScienCell Research Laboratories (San Diego, CA, USA; Cat no. 1800) and maintained according to the protocol recommended by the company (the ScienCell Research Laboratories’ protocol).
The colorimetric MTT assay using 3-(4,5-dimethylthiazol-2-yl)-2,5-diphenyltetrazolium bromide (MTT; Sigma-Aldrich Chemical Co. Ltd., Saint Louis, MO, USA) was used for evaluation of astrocytes viability. The experiment was carried out following the procedure described in detail previously. Astrocytes were seeded onto 96-well plates at a final density of 10 × 10^3 cells/well. Following 24 h of culture, the cells were treated with AR71 (0.78–100 μM) for […], 24, 48, or 72 h. After the respective incubation periods, MTT solution was added to the cell culture for another four hours. Absorbance was measured at 570 nm using a BioTek EL 800× microplate reader (BioTek, Winooski, VT, USA), with the value directly proportional to the number of viable cells. Cell viability was calculated by the following formula: Viability [%] = (A/AC) × 100%, where A represents the absorbance of the investigated sample and AC represents the absorbance of the negative control (untreated cells). The positive control (vehicle) was 0.1% DMSO.

hH3R = biological target: T1, hH3R (Homo sapiens, UniProt Q9Y5N1); test: cAMP accumulation assay in HEK 293 cells stably expressing the hH3R; assay type: cell-based
T1 construct: expressed in transfected cells; host or cells: HEK 293 cells stably expressing hH3R, provided by Dr Thierry Calmels, Bioprojet-Biotech (France)
Procedure: The intrinsic activity of AR71 was evaluated in a 3′,5′-cyclic adenosine monophosphate (cAMP) accumulation assay in human embryonic kidney (HEK) 293 cells, stably expressing the hH3R [42].
The intrinsic activity of AR71 was evaluated in a 3′,5′-cyclic adenosine monophosphate (cAMP) accumulation assay in human embryonic kidney (HEK) 293 cells, stably expressing the hH3R [42], using the LANCE Ultra cAMP kit (Perkin Elmer, Waltham, MA, USA). The applied method was intended to measure the levels of cAMP generated because of changes in adenylyl cyclase activity mediated by GPCRs. The assay is based on the competition between the europium (Eu) chelate-labelled cAMP tracer and sample cAMP for binding sites on cAMP-specific monoclonal antibodies labelled with the ULight dye. The effect of AR71 (concentrations: 10^−10–10^−5 M) on reversing the inhibition of cAMP production by (R)-(-)-α-methyl histamine (30 nM) in forskolin-stimulated (10 μM) cells was evaluated. The experiment was conducted according to the principles described earlier. Experiments were performed three times in triplicates, and IC50 values were determined using GraphPad Prism 8.4.3 software.
Figure S1. Forskolin-stimulated cAMP accumulation studies in HEK 293 cells expressing the human histamine H3
receptor, co-treated with (R)(-)-α-Methylhistamine […] and AR71 (30 nM). […]

T1 sequence (Q9Y5N1 whole entry): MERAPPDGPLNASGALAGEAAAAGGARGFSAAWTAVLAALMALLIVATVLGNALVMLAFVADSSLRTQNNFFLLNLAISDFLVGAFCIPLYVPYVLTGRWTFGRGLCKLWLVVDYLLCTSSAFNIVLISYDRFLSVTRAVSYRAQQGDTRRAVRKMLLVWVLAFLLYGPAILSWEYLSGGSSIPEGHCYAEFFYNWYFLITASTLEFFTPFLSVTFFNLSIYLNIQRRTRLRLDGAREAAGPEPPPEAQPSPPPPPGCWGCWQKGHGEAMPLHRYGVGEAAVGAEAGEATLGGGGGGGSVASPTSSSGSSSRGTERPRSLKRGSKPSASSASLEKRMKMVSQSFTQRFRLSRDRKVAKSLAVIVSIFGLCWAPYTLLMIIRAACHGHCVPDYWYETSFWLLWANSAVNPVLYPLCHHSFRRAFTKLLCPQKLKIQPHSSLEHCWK

SMILES: COc1cc(/C=C/C(=O)c2ccc(OCCCN3CCCCC3)cc2)cc(OC)c1OC [AR71, (E)-3-(3,4,5-trimethoxyphenyl)-1-(4-(3-(piperidin-1-yl)propoxy)phenyl)prop-2-en-1-one]
- number of metabolites formed ([1]; 120 min incubation with HLMs): six
- parent compound remaining unchanged ([1]; 120 min incubation with HLMs): 85%
- parent compound remaining unchanged ([1]; 120 min incubation with HLMs, listed as AR-71): 85.40%
- metabolic stability ([1]; HLMs): rather metabolically stable
- LDH leakage compared with control cells (SH-SY5Y cells; 50 μM): ~60%
- effect on cell membrane integrity (LDH) (SH-SY5Y cells; 0.0975–25 μM): did not disturb the cell membrane
- Ki (hH1R): 2.7 µM and > 2.5 µM
- effect on astrocyte viability at low concentrations (human astrocytes; 1.56 and 3.12 μM, 48 h, did not persist after 72 h): statistically significant proliferation
- IC50 (human astrocytes; 2 h incubation): 41.3 µM
- IC50 (human astrocytes; 24 h incubation): 20.2 µM
- IC50 (human astrocytes; 48 h incubation): 12.5 µM
- IC50 (human astrocytes; 72 h incubation): 9.69 µM
- intrinsic activity profile at H3R (hH3R; counteracts inhibition of cAMP production by (R)-(-)-α-methyl histamine in forskolin-stimulated cells): H3R antagonist/inverse agonist
- IC50 (hH3R; reversal of inhibition of cAMP production by (R)-(-)-α-methyl histamine (30 nM) in forskolin-stimulated (10 μM) cells): 0.0835 ± 0.0119 µM
